Measurements reported in ChEMBL document CHEMBL1134080, “Indazolylamino quinazolines and pyridopyrimidines as inhibitors of the EGFr and C-erbB-2” (Bioorg Med Chem Lett, 2001).

Tests used:
[1] = Half-life was measured in mouse; format: ADME, organism-based; conditions: in vivo
[2] = molecular target: Cyclin-dependent kinase 1 (Homo sapiens, UniProt P06493); test: Inhibition of Cyclin-dependent kinase 1
[3] = molecular target: Dual specificity mitogen-activated protein kinase kinase; MEK1/2 (Homo sapiens, UniProt P36507+Q02750); test: Inhibition of MAPK kinase (MEK); format: protein assay
[4] = molecular target: Cyclin-dependent kinase 2 (Homo sapiens, UniProt P24941); test: Inhibition of Cyclin-dependent kinase 2
[5] = Half-life was measured in rat; format: ADME, organism-based; conditions: in vivo
[6] = Pharmacokinetic property (Plasma clearance) was measured in dog; format: ADME, organism-based, Canis lupus familiaris
MRC5 = test: Inhibition of MRC5 cell proliferation; format: functional, cell-based; conditions: Homo sapiens
[7] = Pharmacokinetic property (Plasma clearance) was measured in mouse; format: ADME, organism-based
[8] = Bioavailability in dog; format: ADME, organism-based, Canis lupus familiaris; conditions: in vivo
[9] = molecular target: RAF proto-oncogene serine/threonine-protein kinase (Homo sapiens, UniProt P04049); test: Inhibition of Raf kinase
Sequence of RAF proto-oncogene serine/threonine-protein kinase (P04049 whole entry): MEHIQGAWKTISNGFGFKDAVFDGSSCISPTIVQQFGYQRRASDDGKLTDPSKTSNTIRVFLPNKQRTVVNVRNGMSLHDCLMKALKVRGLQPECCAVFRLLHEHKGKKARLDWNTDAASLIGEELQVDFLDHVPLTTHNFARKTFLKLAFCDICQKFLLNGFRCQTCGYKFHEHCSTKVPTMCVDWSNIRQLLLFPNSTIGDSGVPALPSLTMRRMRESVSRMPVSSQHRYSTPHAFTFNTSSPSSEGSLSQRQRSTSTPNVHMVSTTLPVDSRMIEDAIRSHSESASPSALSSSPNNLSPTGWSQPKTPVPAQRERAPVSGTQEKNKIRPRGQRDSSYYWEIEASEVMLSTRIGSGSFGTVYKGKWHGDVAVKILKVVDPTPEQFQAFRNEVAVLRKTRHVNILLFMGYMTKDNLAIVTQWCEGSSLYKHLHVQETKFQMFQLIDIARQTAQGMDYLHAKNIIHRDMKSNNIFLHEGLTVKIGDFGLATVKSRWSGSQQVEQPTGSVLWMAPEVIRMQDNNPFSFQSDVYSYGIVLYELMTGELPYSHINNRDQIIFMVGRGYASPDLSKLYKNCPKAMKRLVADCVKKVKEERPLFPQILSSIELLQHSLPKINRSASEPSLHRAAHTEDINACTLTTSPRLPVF

[10] = Half-life was measured in dog; format: ADME, organism-based, Canis lupus familiaris; conditions: in vivo
[11] = molecular target: Receptor tyrosine-protein kinase erbB-2 (Rattus norvegicus, UniProt P06494); test: Inhibition of rat Receptor protein-tyrosine kinase erbB2
Sequence of Receptor tyrosine-protein kinase erbB-2 (P06494 whole entry): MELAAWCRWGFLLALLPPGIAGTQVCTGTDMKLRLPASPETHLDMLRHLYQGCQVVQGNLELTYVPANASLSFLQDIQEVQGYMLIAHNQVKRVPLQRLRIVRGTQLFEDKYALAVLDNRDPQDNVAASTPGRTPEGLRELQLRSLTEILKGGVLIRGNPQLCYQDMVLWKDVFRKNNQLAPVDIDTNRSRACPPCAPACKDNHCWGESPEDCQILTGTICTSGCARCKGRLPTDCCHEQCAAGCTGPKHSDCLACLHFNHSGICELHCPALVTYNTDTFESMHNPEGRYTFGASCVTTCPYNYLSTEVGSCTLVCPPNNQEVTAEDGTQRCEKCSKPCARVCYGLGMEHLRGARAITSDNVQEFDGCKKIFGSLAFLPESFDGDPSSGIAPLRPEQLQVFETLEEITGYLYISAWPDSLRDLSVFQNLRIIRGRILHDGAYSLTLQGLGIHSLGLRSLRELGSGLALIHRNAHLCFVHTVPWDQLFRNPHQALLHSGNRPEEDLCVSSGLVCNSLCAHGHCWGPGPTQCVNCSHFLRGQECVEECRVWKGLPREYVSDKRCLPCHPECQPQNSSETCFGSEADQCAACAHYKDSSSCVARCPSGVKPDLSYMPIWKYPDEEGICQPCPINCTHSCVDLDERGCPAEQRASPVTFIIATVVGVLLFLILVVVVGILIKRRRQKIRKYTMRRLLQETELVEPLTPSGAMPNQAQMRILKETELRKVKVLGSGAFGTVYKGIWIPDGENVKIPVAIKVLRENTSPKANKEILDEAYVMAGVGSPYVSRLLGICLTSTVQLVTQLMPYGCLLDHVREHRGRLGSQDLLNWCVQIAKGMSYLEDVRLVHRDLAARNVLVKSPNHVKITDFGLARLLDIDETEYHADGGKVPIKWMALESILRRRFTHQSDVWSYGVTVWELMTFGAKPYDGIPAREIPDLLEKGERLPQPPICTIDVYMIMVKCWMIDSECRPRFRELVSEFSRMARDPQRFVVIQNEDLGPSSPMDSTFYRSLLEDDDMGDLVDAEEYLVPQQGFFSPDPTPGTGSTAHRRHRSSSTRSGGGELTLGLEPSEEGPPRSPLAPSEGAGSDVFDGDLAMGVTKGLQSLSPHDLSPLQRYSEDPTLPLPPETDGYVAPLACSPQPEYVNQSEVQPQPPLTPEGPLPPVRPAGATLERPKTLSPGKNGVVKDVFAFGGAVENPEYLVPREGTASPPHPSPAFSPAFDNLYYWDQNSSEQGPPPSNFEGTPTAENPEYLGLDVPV

[12] = Bioavailability was measured in rat; format: ADME, organism-based; conditions: in vivo
HB4a = test: Inhibition of RAS overexpressing HB4a.R4.2 cell proliferation; format: functional, cell-based; conditions: Homo sapiens
[13] = Bioavailability was measured in mouse; format: ADME, organism-based; conditions: in vivo
[14] = molecular target: Proto-oncogene tyrosine-protein kinase Src (Homo sapiens, UniProt P12931); test: Inhibition of Src kinase
Sequence of Proto-oncogene tyrosine-protein kinase Src (P12931 2-536 limits assumed): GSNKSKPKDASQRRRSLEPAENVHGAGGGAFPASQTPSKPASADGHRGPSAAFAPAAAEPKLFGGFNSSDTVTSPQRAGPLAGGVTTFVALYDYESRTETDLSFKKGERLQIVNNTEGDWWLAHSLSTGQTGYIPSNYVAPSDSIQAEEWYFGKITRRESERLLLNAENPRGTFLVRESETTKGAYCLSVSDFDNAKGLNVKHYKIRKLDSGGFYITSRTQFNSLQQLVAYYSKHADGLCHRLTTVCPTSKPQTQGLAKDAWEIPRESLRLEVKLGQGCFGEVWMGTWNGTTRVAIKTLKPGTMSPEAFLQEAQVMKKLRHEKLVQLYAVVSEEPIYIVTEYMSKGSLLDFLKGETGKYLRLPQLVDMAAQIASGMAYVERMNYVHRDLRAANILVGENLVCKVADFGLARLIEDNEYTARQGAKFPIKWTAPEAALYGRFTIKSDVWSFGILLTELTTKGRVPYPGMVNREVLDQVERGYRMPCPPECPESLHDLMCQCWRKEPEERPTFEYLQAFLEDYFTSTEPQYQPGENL

[15] = Pharmacokinetic property (Plasma clearance) was measured in rat; format: ADME, organism-based
[16] = molecular target: Epidermal growth factor receptor and ErbB2 (HER1 and HER2) (Homo sapiens) (UniProt P04626+P00533); test: Selectivity for EGF receptor and c-erbB-2; format: protein assay

Sequence of Cyclin-dependent kinase 1 (P06493 whole entry): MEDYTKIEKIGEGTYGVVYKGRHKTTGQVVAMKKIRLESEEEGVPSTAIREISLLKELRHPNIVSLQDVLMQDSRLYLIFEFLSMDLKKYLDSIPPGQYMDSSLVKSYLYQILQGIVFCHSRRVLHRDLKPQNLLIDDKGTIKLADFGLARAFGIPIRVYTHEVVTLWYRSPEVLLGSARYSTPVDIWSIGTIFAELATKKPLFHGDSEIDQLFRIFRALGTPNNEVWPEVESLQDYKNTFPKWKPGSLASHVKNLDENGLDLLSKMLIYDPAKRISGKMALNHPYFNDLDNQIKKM

| Structure (SMILES) | IC50 [11] | Selectivity [16] | further results |
| --- | --- | --- | --- |
| CN(C)c1cc2c(Nc3ccc4c(cnn4Cc4ccccc4)c3)ncnc2cn1 [GW282974X] | 18 nM | – | half-life [1]: 20 min; IC50 [2]: > 8000 nM; IC50 [3]: 9700 nM; IC50 [4]: > 8000 nM; half-life [5]: 18 min; clearance [6]: 34 mL/min/kg; IC50 (MRC5): > 50000 nM; clearance [7]: > 27 mL/min/kg; bioavailability [8]: 82%; IC50 [9]: 49000 nM; half-life [10]: 44 min; bioavailability [12]: 24%; IC50 (HB4a): 30000 nM; bioavailability [13]: > 23%; IC50 [14]: > 50000 nM; clearance [15]: 19 mL/min/kg |
| COc1cc2ncnc(Nc3ccc4c(ccn4Cc4ccccc4)c3)c2cc1OC | 49 nM | 12.5 | – |
| COc1cc2ncnc(Nc3ccc4nc(Cc5ccccc5)[nH]c4c3)c2cc1OC | 10 nM | 19 | – |
| c1ccc(Cn2cnc3cc(Nc4ncnc5ccccc45)ccc32)cc1 | 6600 nM | 39 | – |
| c1ccc(Cn2ncc3cc(Nc4ncnc5ccccc45)ccc32)cc1 | 10 nM | – | – |
| c1ccc(Cn2cnc3ccc(Nc4ncnc5ccccc45)cc32)cc1 | 4400 nM | 27 | – |
| c1ccc(Cn2ccc3cc(Nc4ncnc5ccccc45)ccc32)cc1 | 90 nM | – | – |
| c1ccc(Cc2nc3ccc(Nc4ncnc5ccccc45)cc3[nH]2)cc1 | 560 nM | 36 | – |
| COc1cc2ncnc(Nc3ccc4nn(Cc5ccccc5)cc4c3)c2cc1OC | 290 nM | 8.9 | – |
| Nc1cc2c(Nc3ccc4c(ccn4Cc4ccccc4)c3)ncnc2cn1 | 26 nM | – | – |
| Nc1cc2c(Nc3ccc4[nH]c(Cc5ccccc5)nc4c3)ncnc2cn1 | 49 nM | 18.5 | – |
| Nc1cc2c(Nc3ccc4c(cnn4Cc4ccccc4)c3)ncnc2cn1 | 27 nM | > 5.6 | – |
| COc1cc2ncnc(Nc3ccc4c(cnn4Cc4ccccc4)c3)c2cc1OC | 1 nM | > 5.6 | – |
